# pIC50: −log10 of the molar value.
# Key:
# [1] = tested on: human epidermal cancer cells A431 carrying EGFR WT; assay: Cell proliferation experiment (CellTiter Glo, 72 hours); type: cell-based; conditions: Homo sapiens, A-431
# Summary of the method: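 Cells seeded at 2000 or 3000/well and exposed 72 h to 9-point 3-fold dilutions, top final 10000 nM or 1111 nM, 0.1% DMSO. Viability by CellTiter-Glo luminescence. Inhibition relative to cell and medium controls; IC50 by four-parameter nonlinear regression.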
# Ba/F3-Δ19del/T790M/C797S = Ba/F3-Δ19del/T790M/C797S (Homo sapiens, UniProt P00533, T790M/C797S, cells depend on it, form not given); assay: as above; type: cell-based; conditions: read-out: Ba/F3/EGFR Δ19del/T790M/C797S IC50
# Summary of the method: (§1)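 Ba/F3 cells overexpressing EGFR Δ19del/T790M/C797S or EGFR WT were seeded at 2000 or 3000 cells/well and exposed 72 h to 9 compound concentrations (3-fold, top 10000 or 1111 nM final, 0.1% DMSO). CellTiter-Glo luminescence gave survival inhibition versus controls; IC50 from nonlinear fit.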
# Ba/F3 EGFR WT = Ba/F3 EGFR WT (Homo sapiens, UniProt P00533); assay: as above; type: cell-based; conditions: read-out: BaF3 EGFR WT IC50
# Summary of the method: as §1
# EGFR WT = EGFR WT (Homo sapiens, UniProt P00533); assay: Kinase inhibition assay (mobility shift); type: biochemical
# Experimental: (§2) Experiment 1 Kinase Inhibition Assay Mobility shift assays were performed to determine inhibitory activity of compounds against EGFR^Δ19del/T790M/C797S, EGFR WT and IGF1R kinases. The enzymatic reaction scheme is as follows:
# (§3) 1. Preparing 1*Kinase Buffer as follows:
# (§4) 2. Preparing compound concentration gradient: the initial concentration of the compound tested in the assay was 3,000 nM or 100 nM, which is then diluted to be 100-fold final concentration in 100% DMSO in a 384-source plate. Compounds in 10 concentrations were diluted in a 3-fold gradient with Precision. 250 nL of compound in 100-fold final concentration was transferred to OptiPlate-384F plate by using a dispenser named Echo 550.
# (§5) 3. Preparing kinase solution at 2.5-fold the final concentration with 1×kinase buffer.
# (§6) 4. Adding 10 μL of kinase solution at 2.5-fold the final concentration to compound wells and positive control wells respectively; and adding 10 μL of 1×kinase buffer to negative control wells.
# (§7) 5. Centrifuging the wells at 1,000 rpm for 30 seconds, mixing the reaction plate well by shaking and incubating it at room temperature for 10 minutes.
# (§8) 6. Preparing a mixed solution of ATP and kinase substrate at 5-fold/3-fold the final concentration with 1×Kinase buffer, respectively.
# (§9) 7. Initiating the reaction by adding 15 μL of the mixed solution of ATP and kinase substrate at 5-fold/3-fold the final concentration.
# (§10) 8. Centrifuging the 384-well plate at 1,000 rpm for 30 seconds, mixing the reaction plate well by shaking and incubating it at room temperature for a corresponding time.
# (§11) 9. Adding 30 μL of assay stop solution to stop the kinase reaction, and centrifuging the plate at 1,000 rpm for 30 seconds and mixing it well by shaking.
# (§12) 10. Reading the conversion rate with Caliper EZ Reader.
# (§13) [formula] • wherein, “Conversion % sample” is the conversion rate reading of the sample;
# (§14) “Conversion %_min” is the mean value of the negative control wells, representing the conversion rate readings of the well without enzymatic activity; “Conversion %_max” is the mean value of the positive control wells, representing the conversion rate readings of the wells without compound inhibition. • Dose-response curve is plotted with the logarithmic concentration on the X-axis and percent inhibition on the Y-axis. The fitting of the dose-response curve is made with the module “log(inhibitor) vs. response—Variable slope” of the analysis software GraphPad Prism 5, so that the IC50 value of each compound on enzymatic activity is obtained. • The calculation formula is: Y=Bottom+(Top−Bottom)/(1+10^((Log IC50−X)*HillSlope)).
# IGF1R = IGF1R (Homo sapiens, UniProt P08069); assay: Kinase inhibition assay (mobility shift); type: biochemical
# Experimental: as §2, §3, §4, §5, §6, §7, §8, §9, §10, §11, §12, §13, §14
# EGFR Δ19del/T790M/C797S = EGFR Δ19del/T790M/C797S (Homo sapiens, UniProt P00533, T790M/C797S, form not given); assay: Kinase inhibition assay (mobility shift); type: biochemical
# Experimental: as §2, §3, §4, §5, §6, §7, §8, §9, §10, §11, §12, §13, §14
# Sequence of IGF1R (P08069 31-1367, species assumed): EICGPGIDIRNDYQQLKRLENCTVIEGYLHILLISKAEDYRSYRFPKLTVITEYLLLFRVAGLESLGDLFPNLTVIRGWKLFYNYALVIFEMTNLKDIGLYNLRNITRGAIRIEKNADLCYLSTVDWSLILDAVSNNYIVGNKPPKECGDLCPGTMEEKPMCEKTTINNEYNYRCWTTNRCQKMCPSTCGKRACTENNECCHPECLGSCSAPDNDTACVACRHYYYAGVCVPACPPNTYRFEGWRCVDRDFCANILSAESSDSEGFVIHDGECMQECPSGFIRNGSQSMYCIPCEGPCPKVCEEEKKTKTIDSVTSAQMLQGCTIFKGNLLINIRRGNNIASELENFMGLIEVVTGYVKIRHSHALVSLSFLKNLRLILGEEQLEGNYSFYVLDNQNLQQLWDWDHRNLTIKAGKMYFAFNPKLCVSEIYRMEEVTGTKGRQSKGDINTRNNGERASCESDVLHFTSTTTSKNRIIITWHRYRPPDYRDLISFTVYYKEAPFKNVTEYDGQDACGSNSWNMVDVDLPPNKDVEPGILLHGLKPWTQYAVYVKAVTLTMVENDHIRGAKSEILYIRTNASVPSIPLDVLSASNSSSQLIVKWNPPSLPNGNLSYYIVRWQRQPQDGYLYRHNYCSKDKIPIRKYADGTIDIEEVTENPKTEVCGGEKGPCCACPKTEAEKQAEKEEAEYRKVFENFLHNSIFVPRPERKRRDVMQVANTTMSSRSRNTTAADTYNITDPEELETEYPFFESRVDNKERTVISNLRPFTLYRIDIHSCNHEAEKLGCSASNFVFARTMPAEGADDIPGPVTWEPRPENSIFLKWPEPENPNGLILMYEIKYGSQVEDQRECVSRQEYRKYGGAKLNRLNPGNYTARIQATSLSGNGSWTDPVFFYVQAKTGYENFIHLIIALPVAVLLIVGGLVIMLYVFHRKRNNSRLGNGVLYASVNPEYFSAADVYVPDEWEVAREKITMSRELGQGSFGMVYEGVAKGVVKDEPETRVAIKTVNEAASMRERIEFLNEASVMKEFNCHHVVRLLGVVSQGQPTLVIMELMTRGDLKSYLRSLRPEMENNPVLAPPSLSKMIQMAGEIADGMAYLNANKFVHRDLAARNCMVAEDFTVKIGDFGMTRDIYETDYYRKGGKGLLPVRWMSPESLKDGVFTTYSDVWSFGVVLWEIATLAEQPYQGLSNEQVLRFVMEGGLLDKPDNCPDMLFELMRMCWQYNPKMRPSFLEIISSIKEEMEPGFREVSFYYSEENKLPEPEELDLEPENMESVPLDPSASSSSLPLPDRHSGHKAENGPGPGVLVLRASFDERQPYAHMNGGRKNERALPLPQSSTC
# Sequence of Ba/F3 EGFR WT (P00533 whole entry, change not shown): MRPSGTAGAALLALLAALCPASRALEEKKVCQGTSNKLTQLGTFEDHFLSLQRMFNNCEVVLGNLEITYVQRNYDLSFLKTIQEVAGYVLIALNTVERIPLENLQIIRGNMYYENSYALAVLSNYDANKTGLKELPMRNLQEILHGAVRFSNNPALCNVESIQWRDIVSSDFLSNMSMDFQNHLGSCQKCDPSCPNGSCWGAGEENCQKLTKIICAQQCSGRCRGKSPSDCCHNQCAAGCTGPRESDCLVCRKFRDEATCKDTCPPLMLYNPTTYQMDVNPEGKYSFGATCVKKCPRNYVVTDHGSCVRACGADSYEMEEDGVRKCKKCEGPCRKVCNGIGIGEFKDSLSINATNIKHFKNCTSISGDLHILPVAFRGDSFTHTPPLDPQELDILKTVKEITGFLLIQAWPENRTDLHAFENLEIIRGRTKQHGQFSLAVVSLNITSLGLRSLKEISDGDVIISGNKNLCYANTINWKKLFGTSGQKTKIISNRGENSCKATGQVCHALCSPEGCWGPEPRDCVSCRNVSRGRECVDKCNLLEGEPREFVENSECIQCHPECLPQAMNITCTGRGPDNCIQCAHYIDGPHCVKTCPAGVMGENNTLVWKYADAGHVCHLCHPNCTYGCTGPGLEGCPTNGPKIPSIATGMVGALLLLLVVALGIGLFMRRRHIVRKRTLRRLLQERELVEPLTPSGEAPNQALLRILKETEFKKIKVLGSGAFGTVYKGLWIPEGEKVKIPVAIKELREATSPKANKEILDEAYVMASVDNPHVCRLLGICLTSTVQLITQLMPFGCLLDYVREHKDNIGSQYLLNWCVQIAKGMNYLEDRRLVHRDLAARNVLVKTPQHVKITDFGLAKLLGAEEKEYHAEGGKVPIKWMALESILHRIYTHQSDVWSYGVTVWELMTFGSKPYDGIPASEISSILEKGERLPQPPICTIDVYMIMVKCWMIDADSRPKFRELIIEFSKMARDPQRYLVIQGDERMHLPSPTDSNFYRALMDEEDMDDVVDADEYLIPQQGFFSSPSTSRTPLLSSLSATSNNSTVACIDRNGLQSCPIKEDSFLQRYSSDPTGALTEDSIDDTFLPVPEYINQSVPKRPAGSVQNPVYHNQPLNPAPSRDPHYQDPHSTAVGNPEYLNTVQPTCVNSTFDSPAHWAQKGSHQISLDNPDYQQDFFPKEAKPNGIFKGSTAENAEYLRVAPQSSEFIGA
# Sequence of EGFR Δ19del/T790M/C797S (P00533 with tags, fused parts or gaps DEL746-750/T790M/C797S, form open): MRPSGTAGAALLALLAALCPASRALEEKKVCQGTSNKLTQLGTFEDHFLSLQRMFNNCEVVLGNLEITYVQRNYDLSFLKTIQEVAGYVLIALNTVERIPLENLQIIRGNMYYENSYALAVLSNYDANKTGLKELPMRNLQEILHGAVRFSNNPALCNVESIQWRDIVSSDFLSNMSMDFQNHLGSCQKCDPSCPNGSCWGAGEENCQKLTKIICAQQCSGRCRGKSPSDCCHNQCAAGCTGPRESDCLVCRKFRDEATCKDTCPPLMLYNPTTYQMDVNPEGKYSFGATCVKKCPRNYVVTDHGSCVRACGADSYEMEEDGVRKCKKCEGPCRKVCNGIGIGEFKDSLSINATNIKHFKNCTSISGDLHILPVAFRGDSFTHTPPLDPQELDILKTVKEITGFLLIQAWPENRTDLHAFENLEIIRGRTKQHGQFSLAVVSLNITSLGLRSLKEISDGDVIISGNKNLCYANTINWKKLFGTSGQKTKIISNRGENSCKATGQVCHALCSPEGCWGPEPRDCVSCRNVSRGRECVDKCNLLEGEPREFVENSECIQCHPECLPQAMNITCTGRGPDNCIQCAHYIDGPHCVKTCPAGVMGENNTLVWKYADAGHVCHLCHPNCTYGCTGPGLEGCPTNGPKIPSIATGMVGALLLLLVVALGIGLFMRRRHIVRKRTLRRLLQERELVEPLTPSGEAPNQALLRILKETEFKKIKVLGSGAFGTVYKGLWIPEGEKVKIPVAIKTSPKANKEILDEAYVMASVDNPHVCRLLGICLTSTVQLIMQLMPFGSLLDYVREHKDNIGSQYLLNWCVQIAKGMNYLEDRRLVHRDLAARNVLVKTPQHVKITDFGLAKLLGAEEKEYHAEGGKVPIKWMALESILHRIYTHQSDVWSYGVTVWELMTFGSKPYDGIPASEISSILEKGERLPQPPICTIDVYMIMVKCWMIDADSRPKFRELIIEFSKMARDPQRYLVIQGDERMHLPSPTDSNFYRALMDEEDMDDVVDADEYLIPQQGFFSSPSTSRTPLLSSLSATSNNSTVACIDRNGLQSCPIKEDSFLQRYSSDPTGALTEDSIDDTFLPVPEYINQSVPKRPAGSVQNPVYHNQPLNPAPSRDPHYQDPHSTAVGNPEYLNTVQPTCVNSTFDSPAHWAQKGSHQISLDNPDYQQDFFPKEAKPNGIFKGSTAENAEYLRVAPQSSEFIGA
# Sequence of Ba/F3-Δ19del/T790M/C797S (P00533 with tags, fused parts or gaps DEL746-750/T790M/C797S, form open): as above
pIC50 [1],GI50 (Ba/F3-Δ19del/T790M/C797S),GI50 (Ba/F3 EGFR WT),pIC50 (EGFR WT),pIC50 (IGF1R),pIC50 (EGFR Δ19del/T790M/C797S),SMILES
6.06,6.4 nM,117 nM,7.77,7.57,9.55,"COc1cc(Nc2ncc(Br)c(Nc3ccc4nc(C5CC5)ccc4c3P(C)(C)=O)n2)c(C)cc1N1CCC(N2CCN(C)CC2)CC1 [Compound J-023, (6-((5-Bromo-2-((5-methoxy-2-methyl-4-(4-(4-methylpiperazin-1-yl)piperidin-J-yl)phenyl)amino)pyrimidin-4-yl)amino)-2-cyclopropylquinolin-5-yl)dimethylphosphine oxide]"
6.07,20.8 nM,155 nM,7.72,6.94,9.85,"CCc1ccc2c(P(C)(C)=O)c(Nc3nc(Nc4cc(C)c(N5CCC(N6CCN(C)CC6)CC5)cc4OC)ncc3Br)ccc2n1 [Compound J-028, (6-((5-Bromo-2-((2-methoxy-5-methyl-4-(4-(4-methylpiperazin-1-yl)piperidin-1-yl)phenyl)amino)pyrimidin-4-yl)amino)-2-ethylquinolin-5-yl)dimethylphosphine oxide]"
5.94,4.7 nM,190 nM,7.34,6.84,9.15,"CCc1cc(Nc2ncc(Br)c(Nc3ccc4nc(C5CC5)ccc4c3P(C)(C)=O)n2)c(OC)cc1N1CCN(C)CC1 [Compound J-011, (6-((5-Bromo-2-((5-ethyl-2-methoxy-4-(4-methylpiperazin-1-yl)phenyl)amino)pyrimidin-4-yl)amino)-2-cyclopropylquinolin-5-yl)dimethylphosphine oxide]"
6.01,11.5 nM,187 nM,7.10,6.85,9.70,"COc1cc(N2CCN(C)CC2)c(C)cc1Nc1ncc(Br)c(Nc2ccc3nc(C4CC4)ccc3c2P(C)(C)=O)n1 [Compound J-010, (6-((5-Bromo-2-((2-methoxy-5-methyl-4-(4-methylpiperazin-1-yl)phenyl)amino)pyrimidin-4-yl)amino)-2-cyclopropylquinolin-5-yl)dimethylphosphine oxide]"
5.82,1.9 nM,160 nM,8.14,6.75,9.52,"CCc1cc(Nc2ncc(Br)c(Nc3ccc4nc(C5CC5)ccc4c3P(C)(C)=O)n2)c(OC)cc1N1CCC(N2CCN(C)CC2)CC1 [Compound J-018, (6-((5-Bromo-2-((5-ethyl-2-methoxy-4-(4-(4-methylpiperazin-1-yl)piperidin-1-yl)phenyl)amino)pyrimidin-4-yl)amino)-2-cyclopropylquinolin-5-yl)dimethylphosphine oxide]"
6.29,6 nM,108 nM,8.33,7.24,9.72,"C#Cc1ccc2c(P(C)(C)=O)c(Nc3nc(Nc4cc(CC)c(N5CCC(N6CCN(C)CC6)CC5)cc4OC)ncc3Br)ccc2n1 [Compound J-014, (6-((5-Bromo-2-((5-ethyl-2-methoxy-4-(4-(4-methylpiperazin-1-yl)piperidin-1-yl)phenyl)amino)pyrimidin-4-yl)amino)-2-ethynylquinolin-5-yl)dimethylphosphine oxide]"
5.52,25.7 nM,646 nM,6.76,6.72,9.30,"CCc1cc(N2CCOCC2)c(OC)cc1Nc1ncc(Br)c(Nc2ccc3nc(C4CC4)ccc3c2P(C)(C)=O)n1 [Compound J-003, (6-((5-Bromo-2-((2-ethyl-5-methoxy-4-morpholinylphenyl)amino)pyrimidin-4-yl)amino)-2-cyclopropylquinoline-5-yl)dimethylphosphine oxide]"

# Second part, the molecule before the results:
SMILES,pIC50 [1],GI50 (Ba/F3-Δ19del/T790M/C797S),GI50 (Ba/F3 EGFR WT),pIC50 (EGFR WT),pIC50 (IGF1R),pIC50 (EGFR Δ19del/T790M/C797S)
"COc1cc(Nc2ncc(Br)c(Nc3ccc4nc(C5CC5)ccc4c3P(C)(C)=O)n2)c(C)cc1N1CCC(N(C)C)CC1 [Compound J-009, (6-((5-Bromo-2-((4-(4-(dimethylamino)piperidin-1-yl)-5-methoxy-2-methylphenyl)amino)pyrimidine-4-yl)amino)-2-cyclopropylquinolin-5-yl)dimethylphosphine oxide]",6.42,16.3 nM,168 nM,7.84,7.83,9.52
"COc1cc(Nc2ncc(Br)c(Nc3ccc4nc(C5CC5)ccc4c3P(C)(C)=O)n2)c(C2CC2)cc1N1CCC(N2CCN(C)CC2)CC1 [Compound J-024, (6-((5-Bromo-2-((2-cyclopropyl-5-methoxy-4-(4-(4-methylpiperazin-1-yl)piperidin-1-yl)phenyl)amino)pyrimidin-4-yl)amino)-2-cyclopropylquinolin-5-yl)dimethylphosphine oxide]",5.86,26.7 nM,373 nM,6.94,6.86,9.30
"CCCc1ccc2c(P(C)(C)=O)c(Nc3nc(Nc4cc(C)c(N5CCC(N6CCN(C)CC6)CC5)cc4OC)ncc3Br)ccc2n1 [Compound J-042, (6-((5-Bromo-2-((2-methoxy-5-methyl-4-(4-(4-methylpiperazin-1-yl)piperidin-1-yl)phenyl)amino)pyrimidin-4-yl)amino)-2-propylquinolin-5-yl)dimethylphosphine oxide]",6.43,8.18 nM,296 nM,7.68,6.97,9.52
"COc1cc(Nc2ncc(Br)c(Nc3ccc4nc(C5CC5)ccc4c3P(C)(C)=O)n2)cc(C)c1N1CCC(N2CCN(C)CC2)CC1 [Compound J-029, (6-((5-Bromo-2-((3-methoxy-5-methyl-4-(4-(4-methylpiperazin-1-yl)piperidin-1-yl)phenyl)amino)pyrimidin-4-yl)amino)-2-cyclopropylquinolin-5-yl)dimethylphosphine oxide]",6.69,12.1 nM,98.5 nM,7.38,7.24,9.66
"C#Cc1ccc2c(P(C)(C)=O)c(Nc3nc(Nc4cc(C)c(N5CCC(N6CCN(C)CC6)CC5)cc4OC)ncc3Br)ccc2n1 [Compound J-013, (6-((5-Bromo-2-((2-methoxy-5-methyl-4-(4-(4-methylpiperazin-1 yl)piperidin-1-yl)phenyl)amino)pyrimidin-4-yl)amino)-2-ethynylquinolin-5-yl)dimethylphosphine oxide]",6.51,15.3 nM,87 nM,7.94,7.55,9.40
"C#Cc1ccc2c(P(C)(C)=O)c(Nc3nc(Nc4cc(OC)c(N5CCC(N6CCN(C)CC6)CC5)cc4C)ncc3Br)ccc2n1 [Compound J-015, (6-((5-Bromo-2-((5-methoxy-2-methyl-4-(4-(4-methylpiperazin-1-yl)piperidin-1-yl)phenyl)amino)pyrimidin-4-yl)amino)-2-ethynylquinolin-5-yl)dimethylphosphine oxide]",6.17,15.8 nM,388 nM,7.92,7.92,9.54
